This note sets out measurements from US6537566B1, “Compositions and methods for the non-invasive treatment of uterine fibroid cells” (priority 1999, dated 2003).

SMILES strings stand for the structures. Like-named read-outs stand apart in the source and are kept apart here.

What all share (assay type): cell-based, human
The test system of assay [1] is uterine fibroid leiomyoma cells. In words: DNA content experiment similar to Example 1, GF109203x versus α-tocopherol succinate, 6 days (FIGS. 5A & 5B). The conditions noted are these: comparison of FIG. 5A with 5B; DNA content at time=6 days. On the procedure: (§1) Method: Fibroid tissue was obtained from patients undergoing hysterectomy for symptomatic leiomyomata, and leiomyoma cells were isolated from the tissue using standard techniques. Leiomyoma cells in 5% fetal calf serum were plated at 22,000 cells/well in 12-well plate. Cells were allowed to acclimate and grow for 24 hours before the start of the experiment. At time=0, the DNA content of the wells was determined (32+/−0.6 ng/well), and the cells were treated with different concentrations of the FGI agents as shown in FIG. 3A in 5% fetal calf serum. Controls received fetal calf serum alone. After treatment at time=4 days, the DNA content of each well was determined using standard methods. All points were determined in triplicate and are the mean +/− standard error.
Clearly from Examples 1 & 2, tocopherol related substrates are potential FGI agents. This was expected because of tocopherol's effect on the PKC pathway. However, non-tocopherol related substrates that can appropriate appropriately effect the PKC pathway were also identified as potential FGI agents. Therefore, GF109203x, a protein kinase C inhibitor, was tested in an experiment similar to that of Example 1 to determine the efficacy of a non-tocopherol related, identified potential FGI agent to inhibit fibroid leiomyoma cell proliferation. Here, the DNA content of treated wells was determined at time=6 days. […]

Assay [2] shares this test system. Kind of assay: DNA content assay of growing leiomyoma cells treated with FGI agents (Example 1, 4 days). The conditions noted are these: for IC50: read-out: IC50 (= 80 ng) Concentration; for NG0 (= 32 ng) Concentration (no net growth): concentration giving the time=0 DNA content of 32 ng/well.
Excerpt: A DNA assay was used for determining the effect of potential FGI agents on the growth of uterine fibroid leiomyoma cells. The assay determined the effect of various concentrations of an individual FGI agent on the accumulation of DNA in an actively growing population of uterine fibroid leiomyoma cells. The accumulation of DNA in treated cell populations relative to untreated controls was an indication the efficacy of the FGI agent for inhibiting fibroid cell proliferation.
as §1
The significance of the IC50 point was that it represented an estimated point relative to which a substrate may in part be gauged as an effective FGI agent. The NG0 (no net growth) was the point on the graph corresponding to the time=0 or starting DNA content of the wells.

Assay [3] has the same test system. Kind of assay: Separate DNA content experiment under conditions similar to Example 1, read at 6 days (FIG. 3B). The conditions noted are these: DNA content determined at time=6 days. On the procedure: as §1
FIG. 3B is a graph of the results for α-tocopherol succinate from a separate experiment under conditions similar to Example 1. Here, the DNA content of treated wells was determined at time=6 days. The area under the horizontal line indicates the concentration at which net cell death occurred in this experiment (˜38 μM).

Assay [4] has the same test system. In words: Growth of leiomyoma cells with low added concentrations over background tocopherols (Example 2). The conditions noted are these: added concentrations ranging from 1 to 5 μM over background tocopherols (about 10 μM); 4 days. As for the experimental part: as §1
Method: See Example 1 above generally. Vitamin C, an antioxidant that is not an identified potential FGI agent, was used as an experimental substrate control.
Results: The results are illustrated in FIGS. 4A and 4B. The DNA concentration of controls at time=4 days was 99+/−0.2 ng/well (the “0” concentration in FIGS. 4A & 4B). Growth of uterine fibroid cells clearly occurred in the presence of a background concentration of tocopherols. […] However, upon the addition of 10 μM over back ground tocopherol treated wells began to show detectable inhibition of the growth of uterine fibroid cell populations.

The mark [5] stands for this setting: Homo sapiens, 96 h, increase in DNA content 50% of that of control wells, time=4 days, 5% fetal calf serum, N/A = condition not attained.
[6] abbreviates: time=4 days, 5% fetal calf serum, N/A = condition not attained.
The mark [7] stands for this setting: increase in DNA content 50% of that of control wells, time=4 days, 5% fetal calf serum, N/A = condition not attained.

On to `CN(C)CCCn1cc(C2=C(c3c[nH]c4ccccc34)C(=O)NC2=O)c2ccccc21` [GF109203x], for which the “efficiency at inhibiting fibroid leiomyoma cell proliferation relative to α-tocopherol succinate” value in assay [1] is reported as around 5 time.

For the compound `CCc1ccc(CCOc2ccc(CC3SC(=O)NC3=O)cc2)nc1` (centres unmarked) [Pioglitazone], the IC50 in assay [2] (setting [5]) was 40 µM. In addition, the “NG0 (= 32 ng) Concentration (no net growth)” value (shortened to “NG0 … (no net growth)”) in assay [2] (setting [6]) was determined as 88 µM.

Turning to `CN(CCOc1ccc(CC2SC(=O)NC2=O)cc1)c1ccccn1` (centres unmarked) [Rosiglitazone], in assay [2] (Homo sapiens, 96 h), the IC50 is 40 µM. Also, the “NG0 … (no net growth)” value in assay [2] (setting [6]) turned out to be 90 µM.

As to `Cc1c(C)c2c(c(C)c1O)CCC(C)(COc1ccc(CC3SC(=O)NC3=O)cc1)O2` (centres unmarked) [Troglitazone], in assay [2] (setting [5]), the IC50 stood at 12 µM. Moreover, in assay [2] (setting [6]), the “NG0 … (no net growth)” value turned out to be 50 µM.

On to `Cc1c(C)c2c(c(C)c1OC(=O)CCC(=O)O)CC[C@@](C)(CCC[C@H](C)CCC[C@H](C)CCCC(C)C)O2` [α-Tocopherol succinate], for which the “NG0 … (no net growth)” value in assay [2] (setting [6]) was 38 µM. Further, in assay [2] (setting [7]), the IC50 turned out to be 22 µM. The “concentration at which net cell death occurred” value in assay [3] is around 38 µM. Moreover, the “growth of uterine fibroid cell populations at low added concentrations” value (“growth … at low added concentrations” below) in assay [4] is “substantially uninhibited”.

Consider `Cc1c(C)c2c(c(C)c1O)CC[C@@](C)(CCC[C@H](C)CCC[C@H](C)CCCC(C)C)O2` [α-Tocopherol], for which the IC50 in assay [2] (setting [7]) is 27 µM. The “growth … at low added concentrations” value in assay [4] is listed as “substantially uninhibited”.

Turning to `Cc1cc(O)c(C)c2c1O[C@](C)(CCC[C@H](C)CCC[C@H](C)CCCC(C)C)CC2` [β-Tocopherol], the “growth … at low added concentrations” value in assay [4] is recorded as “substantially uninhibited”.
